Measured values taken from ChEMBL document CHEMBL5308541, “MAIP: An Open-Source Tool to Enrich High-Throughput Screening Output and Identify Novel, Druglike Molecules with Antimalarial Activity” (ACS Med Chem Lett, 2023).

Tests used:
Plasmodium falciparum [1] = assay: Hit confirmation in dose-response curve in NF54 nanoGlo assay, at 72h; type: functional, organism-based, Erythrocyte; set-up: timepoint 72 hour; conditions: Plasmodium falciparum, NF54, Erythrocyte, 72 h
Plasmodium falciparum [2] = assay: Hit confirmation in dose-response curve in NF54 pLDH assay, at 72h; type: functional, organism-based, Erythrocyte; set-up: timepoint 72 hour; conditions: Plasmodium falciparum, NF54, Erythrocyte, 72 h
Plasmodium falciparum [3] = assay: Hit confirmation in dose-response curve in Dd2 pLDH assay, at 72h; type: functional, organism-based, Erythrocyte; set-up: timepoint 72 hour; conditions: Plasmodium falciparum, Dd2, Erythrocyte, 72 h
Plasmodium falciparum [4] = assay: Hit confirmation in dose-response curve in NF54 nanoGlo assay, at 12h; type: functional, organism-based, Erythrocyte; set-up: timepoint 12 hour; conditions: Plasmodium falciparum, NF54, Erythrocyte, 12 h
[5] = Hit confirmation in dose-response curve in HepG2 cytotoxicity assay, at 72h; type: toxicity, cell-based, Homo sapiens; set-up: timepoint 72 hour; conditions: human, HepG2 cells

| IC50 (Plasmodium falciparum [1]) | IC50 (Plasmodium falciparum [2]) | IC50 (Plasmodium falciparum [3]) | IC50 (Plasmodium falciparum [4]) | Compound | IC50 at 72 h [5] |
| --- | --- | --- | --- | --- | --- |
| 1.23 µM | 6.61 µM | 4.37 µM | 0.977 µM | Cc1nc(N2CCN(C)CC2)cc(N2CCN(S(=O)(=O)c3ccccc3C(F)(F)F)CC2)n1 | > 10 µM |
| 3.89 µM | 3.89 µM | 3.39 µM | 7.41 µM | Cc1cc(C)c(CN2CCN(C)CC2)cc1CNCCCn1ccnc1C | > 10 µM |
| 4.17 µM | 9.33 µM | 6.46 µM | > 10 µM | CN(c1ccccc1)c1ccc(CN2CCN([C@H]3CCNC3)CC2)cc1 | > 10 µM |
| 1.45 µM | 3.55 µM | 4.17 µM | 6.46 µM | c1ccc(CCC23CN(Cc4ccccn4)CC2CN(Cc2ccns2)C3)cc1 (stereo not given) | > 10 µM |
| 1.35 µM | 1.35 µM | 1.2 µM | 1.91 µM | CN1CCN(CC2CCN(c3ccnc4ccccc34)CC2)CC1 | > 10 µM |
| 1.17 µM | 1.48 µM | 2.04 µM | > 10 µM | Cc1cc(O)c(Cl)cc1-c1cccc2c(N)ccnc12 | > 10 µM |
| 1.58 µM | 3.98 µM | 3.02 µM | > 10 µM | Cc1noc(-c2ccnc(NC[C@@H](c3ccccn3)N3CCOCC3)c2)n1 | > 10 µM |
| 2.82 µM | 3.55 µM | 3.31 µM | 9.55 µM | N[C@H]1CC[C@@H](NC2CCN(c3ccc(F)c(F)c3)CC2)CC1 | 7.76 µM |
| 3.89 µM | 3.31 µM | 3.47 µM | 8.91 µM | Cc1ccc2nc(CCCNC3CCN(c4cc(C)nc(N)n4)CC3)oc2c1 | > 10 µM |
| 8.71 µM | 8.32 µM | > 10 µM | > 10 µM | Nc1cc(N2CCC(c3nc4cc(F)ccc4[nH]3)CC2)nc(N2CCOCC2)n1 | > 10 µM |
| 0.912 µM | 1.1 µM | 1.1 µM | 3.02 µM | Cc1cc(N2CCC(NC3CCCC3Cc3ccc(F)cc3)CC2)nc(N)n1 (stereo not given) | 4.68 µM |
| 2.88 µM | 4.57 µM | 4.17 µM | 6.03 µM | COc1ccc2cc(-c3cc(N)ccn3)[nH]c2c1 | > 10 µM |
| 4.57 µM | 3.72 µM | 3.55 µM | > 10 µM | Cc1nc2ccc(CNC3CCN(c4ccc(F)c(F)c4)CC3)cc2[nH]1 | > 10 µM |
| 2.04 µM | 3.02 µM | 2.45 µM | 3.16 µM | Cc1ccc2nc(NC[C@H]3CCN(C4CC4)C3)cc(C)c2c1 | > 10 µM |
| 2.88 µM | 3.72 µM | 2.69 µM | 7.94 µM | c1cncc(-c2ccc(CNC3CCN(Cc4cccs4)CC3)cc2)c1 | > 10 µM |
| 3.24 µM | 4.47 µM | 3.72 µM | > 10 µM | Cc1cc(N2CCC(N(C)Cc3cc(-c4ccccc4)n[nH]3)CC2)nc(N)n1 | > 10 µM |
| 3.47 µM | 3.72 µM | 3.16 µM | 5.25 µM | Clc1cccc(N2CC[C@H](CNC3CCN(Cc4ccco4)CC3)C2)c1 | > 10 µM |
| 3.39 µM | 5.25 µM | 3.8 µM | > 10 µM | CNc1nc(C)cc(N[C@@H]2COc3ccccc3C2)n1 | > 10 µM |
| 2.34 µM | 2.57 µM | 1.78 µM | 7.24 µM | c1ccc(CN2CCC(CCNC[C@@H]3CCCN4CCCC[C@H]34)CC2)cc1 | > 10 µM |
| 0.912 µM | 1.1 µM | 1.12 µM | 1.55 µM | COc1cc2nc(-c3ccc(F)c4cccnc34)nc(N)c2cc1OC | 1.02 µM |
| 3.16 µM | 7.76 µM | 6.31 µM | 6.76 µM | Oc1ccc(OC(F)(F)F)cc1-c1ccc2nccn2n1 | > 10 µM |
| 0.324 µM | 0.38 µM | 0.302 µM | > 10 µM | Cc1cc(O)c(Cl)cc1-c1ccc2nccc(N)c2c1 | > 10 µM |
| 1.48 µM | 0.398 µM | 0.575 µM | > 10 µM | C[C@H]1CCCN(CCNC(=O)c2ccc(-c3ccc4c(=O)[nH]ccc4c3)cc2)C1 | > 10 µM |
| 2.82 µM | > 10 µM | 6.46 µM | > 10 µM | CNc1nc(C)c(-c2ccnc(Nc3cccc(S(C)(=O)=O)c3)n2)s1 | 0.78 µM |
| 3.09 µM | 2.95 µM | 3.02 µM | 5.89 µM | Cc1cccc(N2CCC(NCc3cc(C)cc(CN4CCN(C)CC4)c3C)CC2)c1 | > 10 µM |

| IC50 (Plasmodium falciparum [1]) | IC50 (Plasmodium falciparum [2]) | IC50 (Plasmodium falciparum [3]) | IC50 (Plasmodium falciparum [4]) | Compound | IC50 at 72 h [5] |
| --- | --- | --- | --- | --- | --- |
| 1.45 µM | 1.38 µM | 1.2 µM | 2.75 µM | Cc1cnccc1NCCNCc1cccc(OCCCCN2CCOCC2)c1 | > 10 µM |
| 6.31 µM | > 10 µM | > 10 µM | 8.91 µM | CCCC(=O)NC1COCC1Cc1ccncc1 (stereo not given) | > 10 µM |
| 1.51 µM | 1.74 µM | 1.62 µM | 3.09 µM | CCN(Cc1[nH]c2ccc(Cl)cc2c1C)CC1CCN(C2CCN(C)CC2)CC1 | > 10 µM |
| 1.15 µM | 1.41 µM | 1.29 µM | 2.88 µM | Cc1ccccc1-c1cccc(N2CCC(NCC3CCNCC3)CC2)c1 | 5.5 µM |
| 3.09 µM | 3.63 µM | 3.72 µM | > 10 µM | Cc1cc(N2CCC(NCCCN3CCCc4ccccc43)CC2)nc(N)n1 | > 10 µM |
| 3.39 µM | 3.89 µM | 2.69 µM | 7.24 µM | Cc1cc(NCCCN2CCC[C@H](O)C2)c2cc(F)ccc2n1 | > 10 µM |
| 2.51 µM | 3.39 µM | 2.14 µM | > 10 µM | Cc1cnccc1NCCNCc1cnc(N2CCCCC2)nc1 | > 10 µM |
| 2.45 µM | 2.63 µM | 2.29 µM | > 10 µM | CNc1nc(N[C@H]2CCCN(Cc3ccc(Cl)cc3)C2)nc2c1CCC2 | > 10 µM |
| 1.55 µM | 1.35 µM | 1.23 µM | 2.69 µM | CCN(Cc1cnn(-c2cccc(Cl)c2)c1)CC1CCN(C2CCN(C)CC2)CC1 | > 10 µM |
| 0.162 µM | 0.166 µM | 0.135 µM | 0.234 µM | COCCN1CCC[C@@]2(CCN(c3ccnc4cc(Cl)ccc34)C2)C1 | > 10 µM |
| 6.31 µM | 14.5 µM | > 10 µM | > 10 µM | O=C1CN(C(=O)c2ccnc3ccccc23)CCN1Cc1ccccc1F | > 10 µM |
| 3.39 µM | 3.47 µM | 2.29 µM | 5.89 µM | COc1ccc(CNCc2cc3ccccc3[nH]2)cc1CN(C)C | > 10 µM |
| 1.23 µM | 3.31 µM | 2.69 µM | > 10 µM | Nc1ccnc2ccc(-c3ccc(C(=O)NCC4CCOCC4)cc3)cc12 | > 10 µM |
| 3.72 µM | 5.25 µM | 5.37 µM | > 10 µM | Cc1ccn2cc(-c3ccc(N4CCC(NCc5cccnc5)CC4)cc3)nc2c1 | > 10 µM |
| 6.92 µM | > 10 µM | > 10 µM | 2.75 µM | FC(F)(F)c1ccc(-c2c(-c3ccccc3)ncn2Cc2ncn[nH]2)cc1 | > 10 µM |
| 2.14 µM | 3.47 µM | 2.24 µM | 8.51 µM | COc1cc2nc(NCC3(N4CCN(C)CC4)CCCC3)cc(C)c2cc1OC | > 10 µM |
| 5.62 µM | 6.31 µM | 5.75 µM | 9.77 µM | CCc1ccc2ncnc(NCCCN3CCN(CCO)CC3)c2c1 | > 10 µM |
| 2.4 µM | 3.47 µM | 3.47 µM | > 10 µM | CCNc1cc(C)nc(NCCNC(=O)Nc2cc(F)cc(F)c2)n1 | > 10 µM |
| 0.263 µM | 0.389 µM | 0.269 µM | 0.562 µM | CCNc1nc(C)cc(Nc2ccc(NC(=O)Nc3ccc(F)cc3F)cc2)n1 | 2.63 µM |
| 3.02 µM | 5.37 µM | 2.75 µM | 8.71 µM | COCCNc1nc(N[C@@H](C)c2ccccc2)c2ccccc2n1 | > 10 µM |
| 3.98 µM | 4.07 µM | 3.72 µM | 7.41 µM | OC1(c2ccc(Cl)cc2)CCN(C[C@@H]2CCCN3CCCC[C@H]23)CC1 | > 10 µM |
| 7.24 µM | > 10 µM | > 10 µM | > 10 µM | Cc1ccc2c(-c3ccccc3CN3CCNCC3)cccc2n1 | > 10 µM |
| 2.19 µM | 2.69 µM | 3.02 µM | 6.76 µM | COc1ccc2c(C)cc(NCCCN3CCC[C@H](C(N)=O)C3)nc2c1 | > 10 µM |
| 8.32 µM | 9.12 µM | 9.77 µM | > 10 µM | CCn1cc(-c2cccc(C(=O)N[C@@H](C)CN3CCc4ccccc4C3)c2)cn1 | > 10 µM |
| 1.78 µM | 2.63 µM | 2.63 µM | 3.63 µM | Cc1ccc2[nH]c(-c3cc4n(n3)CCN(c3ccnc(N)n3)C4)nc2c1C | > 10 µM |

| Compound | IC50 (Plasmodium falciparum [1]) | IC50 (Plasmodium falciparum [2]) | IC50 (Plasmodium falciparum [3]) | IC50 (Plasmodium falciparum [4]) | IC50 at 72 h [5] |
| --- | --- | --- | --- | --- | --- |
| CN1C2CCC1CC(OC(=O)C1CCC(C(=O)OC3CC4CCC(C3)N4C)(c3ccccc3)c3ccccc31)C2 (stereo not given) | 2.88 µM | 3.8 µM | 3.31 µM | 3.89 µM | > 10 µM |
| CN(C)CC12CNCC1CN(c1ccnc3cc(Cl)ccc13)C2 (stereo not given) | 0.0417 µM | 0.0309 µM | 0.043 µM | 0.0513 µM | > 10 µM |
